These results are taken from patent publication US7495027B2, “3-aryl-4-hydroxyfuranone compounds and the human and animal health use thereof” (Wyeth, priority 2003, dated 2009).

The structures appear in SMILES notation. Converted amounts (≈) assume the structure as drawn. Where two headings read alike, the source gives them in different places.

The target in assay [1] is E. coli Enopyruvyl-UPD-N-acetylglucosamine reductase, Mur B (Escherichia coli, UniProt P08373). The experiment in a line: biochemical. Conditions: (E) E. coli enzyme; for IC50: read-out: MurB IC50 (converted).
Chain of E. coli Enopyruvyl-UPD-N-acetylglucosamine reductase, Mur B (P08373 whole entry): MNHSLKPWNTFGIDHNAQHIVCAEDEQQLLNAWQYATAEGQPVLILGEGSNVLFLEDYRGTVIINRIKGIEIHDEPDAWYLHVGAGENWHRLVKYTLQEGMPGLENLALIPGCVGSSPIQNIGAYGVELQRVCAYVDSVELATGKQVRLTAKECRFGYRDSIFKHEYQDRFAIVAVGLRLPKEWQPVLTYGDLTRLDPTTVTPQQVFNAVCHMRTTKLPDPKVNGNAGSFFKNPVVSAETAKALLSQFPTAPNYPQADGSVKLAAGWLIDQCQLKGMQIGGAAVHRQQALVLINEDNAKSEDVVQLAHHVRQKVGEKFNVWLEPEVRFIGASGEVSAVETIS
Assay [2] has as its system Streptococci. Kind of assay: Minimum inhibitory concentration, microdilution broth method, streptococci. The format is cell-based. Conditions: Mueller-Hinton broth with 5% horse blood, 18-22 hours at 35° C.; for MIC: S. pneumo GC 1894. The gist of the method:
(§1)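 Strep: Mueller-Hinton + 5% horse blood (LHB). Enterococci, staph: Mueller-Hinton broth alone. Microdilution format per NCCLS M7-A5 2000; isolates include resistant clinical strains.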

The target in assay [3] is E. coli Uridine-diphosphate-N-acetvimuramoyl: L-alanine lipase, MurC (Escherichia coli, UniProt P17952). The experiment in a line: Inhibitory activity against MurC (E. coli). The format is biochemical. The settings on record: (E) E. coli enzyme; for IC50: read-out: MurC IC50 (converted).
Chain of E. coli Uridine-diphosphate-N-acetvimuramoyl: L-alanine lipase, MurC (P17952 whole entry): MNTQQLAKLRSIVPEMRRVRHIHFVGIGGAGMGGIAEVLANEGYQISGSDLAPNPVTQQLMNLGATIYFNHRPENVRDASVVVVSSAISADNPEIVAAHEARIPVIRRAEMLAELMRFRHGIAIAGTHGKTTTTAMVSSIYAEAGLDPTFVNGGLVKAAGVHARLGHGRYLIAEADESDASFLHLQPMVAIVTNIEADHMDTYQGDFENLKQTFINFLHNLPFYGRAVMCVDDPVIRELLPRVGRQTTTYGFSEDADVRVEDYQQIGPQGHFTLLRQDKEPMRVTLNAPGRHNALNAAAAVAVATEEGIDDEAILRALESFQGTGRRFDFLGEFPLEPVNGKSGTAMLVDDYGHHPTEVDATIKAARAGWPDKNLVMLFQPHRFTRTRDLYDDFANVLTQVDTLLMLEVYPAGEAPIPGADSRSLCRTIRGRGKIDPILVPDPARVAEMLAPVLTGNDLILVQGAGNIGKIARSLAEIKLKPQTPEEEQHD
Assay [4] addresses T1, S. aureus Uridine-diphosphate-N-acetylmuramoyl-L-alanine: D-glutamate liease, MurD (Staphylococcus aureus, UniProt Q2FZ92).
T1 sequence (Q2FZ92 1-449): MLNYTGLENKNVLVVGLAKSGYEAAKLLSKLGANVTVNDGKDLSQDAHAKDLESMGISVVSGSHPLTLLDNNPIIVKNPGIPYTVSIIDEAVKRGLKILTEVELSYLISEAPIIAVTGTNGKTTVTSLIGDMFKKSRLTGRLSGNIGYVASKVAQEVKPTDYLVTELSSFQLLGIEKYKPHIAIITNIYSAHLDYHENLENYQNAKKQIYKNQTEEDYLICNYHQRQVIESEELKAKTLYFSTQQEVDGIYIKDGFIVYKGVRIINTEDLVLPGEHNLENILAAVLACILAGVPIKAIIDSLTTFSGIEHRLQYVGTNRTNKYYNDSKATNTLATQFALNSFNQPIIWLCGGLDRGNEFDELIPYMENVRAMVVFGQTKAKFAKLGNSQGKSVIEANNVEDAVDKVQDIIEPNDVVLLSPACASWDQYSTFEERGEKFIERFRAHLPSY
Kind of assay: biochemical. The settings on record: (S) S. aureus enzyme. Here is the method:
S. aureus and E. coli Uridine-diphosphate-N-acetylmuramoyl-L-alanine: D-glutamate liease, MurD
Preparation of Enzyme Solution:
Preparation of Test Compound Solutions:
All test solutions are prepared in DMSO as 10 mg/mL, then diluted with 50 mM Tris/HCl (pH 8.5) to 100 μg/mL.
Preparation of Stop Solution:
In this evaluation, the inhibitory activity of a test compound against MurD, the enzyme which catalyzes the fourth step of bacterial cell wall biosynthesis is determined.

The target of assay [5] is E. coli Uridine-diphosphate-N-acetylmuramoyl-L-alanine: D-glutamate liease, MurD (Escherichia coli, UniProt P14900). Kind of assay: biochemical. Conditions: (E) E. coli enzyme. The gist of the method:
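Compound working solutions reach 100 μg/mL in 50 mM Tris/HCl (pH 8.5) after dilution of 10 mg/mL DMSO stocks; final level in the well not given here. Reaction buffer finals: 2 mM ATP, 50 mM MgCl2, 83 mM Tris/HCl, pH 8.0.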

The subject of assay [6] is staphylococci. The experiment in a line: Minimum inhibitory concentration, microdilution broth method, staphylococci. The format is cell-based. Conditions: Mueller-Hinton broth, 18-22 hours at 35° C.; for MIC: Staphylococcus aureus. The gist of the method: as §1
(In general: Broth dilution looks for growth in wells or tubes with falling amounts of substance.)

Assay [7] deals with E. coli UDP-N-acetylglucosamine enolpyruvoyl transferase, MurA (Escherichia coli, UniProt P0A749). The experiment in a line: biochemical. Conditions: (E) E. coli enzyme. The gist of the method:
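Enzyme in 50 mM Tris/HCl pH 8.0 with 5 mM DTT and 20% glycerol was pre-incubated 10 min at 37° C with test compound in DMSO/water. Tris/BME and assay buffer then started the 1 hr, 37° C reaction, with a baseline 340 nm reading taken at start. Stop solution followed, and colour developed 30 minutes.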

Assay [8] has as its system enterococci. Kind of assay: Minimum inhibitory concentration, microdilution broth method, enterococci. Type of assay: cell-based. Conditions: Mueller-Hinton broth, 18-22 hours at 35° C.; for MIC: Enterococcus faecalis. The gist of the method:
as §1

Setting [9] is: S. aureus GC 1131, read-out: MIC S. aureus GC 1131.
Setting [10] is: S. aureus GC 4543, read-out: MIC S. aureus GC 4543.
Setting [11] is: E. faecalis GC 2242, read-out: MIC E. faecalis GC 2242.
[12] abbreviates: E. faecalis GC 4555, read-out: MIC E. faecalis GC 4555.

Chain of E. coli Uridine-diphosphate-N-acetylmuramoyl-L-alanine: D-glutamate liease, MurD (P14900 whole entry): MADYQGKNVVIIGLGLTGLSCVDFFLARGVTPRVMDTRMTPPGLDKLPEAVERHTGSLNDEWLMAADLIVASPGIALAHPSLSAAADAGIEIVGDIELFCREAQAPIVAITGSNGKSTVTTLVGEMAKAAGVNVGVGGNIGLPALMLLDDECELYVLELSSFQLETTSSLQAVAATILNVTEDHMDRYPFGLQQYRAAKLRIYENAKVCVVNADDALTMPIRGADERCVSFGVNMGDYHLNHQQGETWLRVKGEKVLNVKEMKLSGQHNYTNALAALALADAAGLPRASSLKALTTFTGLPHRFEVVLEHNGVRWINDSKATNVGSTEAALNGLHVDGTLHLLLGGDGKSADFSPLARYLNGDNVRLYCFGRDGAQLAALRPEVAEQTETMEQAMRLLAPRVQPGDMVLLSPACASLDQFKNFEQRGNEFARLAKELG
Chain of E. coli UDP-N-acetylglucosamine enolpyruvoyl transferase, MurA (P0A749 whole entry): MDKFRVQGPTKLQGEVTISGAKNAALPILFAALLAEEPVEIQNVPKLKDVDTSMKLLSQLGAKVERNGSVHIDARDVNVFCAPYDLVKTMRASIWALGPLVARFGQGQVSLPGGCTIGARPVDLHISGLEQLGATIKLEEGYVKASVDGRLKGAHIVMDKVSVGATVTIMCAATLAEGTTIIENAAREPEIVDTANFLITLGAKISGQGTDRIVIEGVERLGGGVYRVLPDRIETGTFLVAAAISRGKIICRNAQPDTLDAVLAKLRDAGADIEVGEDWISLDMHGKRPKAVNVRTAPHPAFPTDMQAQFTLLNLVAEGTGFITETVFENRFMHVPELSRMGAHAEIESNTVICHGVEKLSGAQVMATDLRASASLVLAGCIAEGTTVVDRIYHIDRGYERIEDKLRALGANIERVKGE

By IC50 is commonly meant the concentration that inhibits the measured activity by half. For orientation: MIC means the lowest concentration found to suppress growth. Regarding `O=C1O/C(=C\c2ccc(-c3ccccc3F)cc2)C(O)=C1c1ccccc1F` [Example 58], the IC50 in assay [1] was over 66.4 µM; in assay [3] it was 37.2 µM; in assay [4], over 66.4 µM; in assay [5] it was over 66.4 µM; in assay [7] it was over 66.4 µM. Also, the minimum inhibitory concentration (MIC) in assay [2] was under 0.125 µg/mL; in assay [6] (setting [9]), 8 µg/mL (≈ 21.3 µM); in assay [6] (setting [10]), 16 µg/mL (≈ 42.5 µM); in assay [8] (setting [11]), 16 µg/mL (≈ 42.5 µM); in assay [8] (setting [12]), over 128 µg/mL.

For the molecule `N#Cc1cccc(-c2ccc(/C=C3\OC(=O)C(c4ccccc4C#N)=C3O)cc2)c1` [Example 59], the IC50 was 15.4 µM in assay [1]; 15.4 µM in assay [3]; 12.8 µM in assay [4]; 12.8 µM in assay [5]; 43.5 µM in assay [7]. The MIC in assay [2] was 32 µg/mL (≈ 82 µM); in assay [6] (setting [9]) it was over 128 µg/mL; in assay [6] (setting [10]), over 128 µg/mL; in assay [8] (setting [11]) it was 8 µg/mL (≈ 20.5 µM); in assay [8] (setting [12]), 8 µg/mL (≈ 20.5 µM).

As to `Cc1ccccc1C1=C(O)/C(=C/c2ccc(-c3ccccc3C)cc2)OC1=O` [Example 60], the IC50 in assay [1] is over 67.9 µM; in assay [3] it was 38 µM; in assay [4], 59.7 µM; in assay [5] it was over 67.9 µM; in assay [7], over 67.9 µM. The MIC in assay [2] was 8 µg/mL (≈ 21.7 µM); in assay [6] (setting [9]), 16 µg/mL (≈ 43.4 µM); in assay [6] (setting [10]), 16 µg/mL (≈ 43.4 µM); in assay [8] (setting [11]) it was 8 µg/mL (≈ 21.7 µM); in assay [8] (setting [12]) it was 32 µg/mL (≈ 86.9 µM).

`O=C1O/C(=C\c2ccc(-c3ccccc3C(F)(F)F)cc2)C(O)=C1c1ccccc1C(F)(F)F` [Example 61]: the concentration for half-maximal inhibition (IC50) is over 52.5 µM in assay [1]; 29.4 µM in assay [3]; 39.9 µM in assay [4]; over 52.5 µM in assay [5]; over 52.5 µM in assay [7]. The minimum inhibitory concentration (MIC) stood at 8 µg/mL (≈ 16.8 µM) in assay [2]; 16 µg/mL (≈ 33.6 µM) in assay [6] (setting [9]); 16 µg/mL (≈ 33.6 µM) in assay [6] (setting [10]); 16 µg/mL (≈ 33.6 µM) in assay [8] (setting [11]); 32 µg/mL (≈ 67.2 µM) in assay [8] (setting [12]).

As for `N#Cc1ccc(C2=C(O)/C(=C/c3ccc(-c4ccc(C#N)cc4)cc3)OC2=O)cc1` [R=H, R1=4-CN—C6H4, R2=4-(4′-CN-biphenyl)], the “MurB IC50” value in assay [1] is 15 (E) μg/mL. Also, in assay [2], the “MIC S. pneumo GC 1894” value was found to be 64 µg/mL (≈ 164 µM). Further, the “MurC IC50” value in assay [3] is 5 (E) μg/mL. For the same molecule, the “MurD IC50” value is over 25 µg/mL in assay [4] and 5 µg/mL in assay [5]. Moreover, the “MIC S. aureus GC 1131” value in assay [6] (S. aureus GC 1131) was over 128 µg/mL. For the same molecule, the “MIC S. aureus GC 4543” value in assay [6] (S. aureus GC 4543) is over 128 µg/mL. For the same molecule, the “MurA IC50” value in assay [7] was 7 (E) μg/mL. Besides, the “MIC E. faecalis GC 2242” value in assay [8] (E. faecalis GC 2242) was 32 µg/mL (≈ 82 µM). In addition, the “MIC E. faecalis GC 4555” value in assay [8] (E. faecalis GC 4555) is 64 µg/mL (≈ 164 µM).
